Measurements: ChEMBL document CHEMBL1201862, “PubChem BioAssay data set” (2004)
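Test compounds were applied to cells in 96-well plates for 48 hours at 5 doses. At the GI50, growth is halved.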 The source made the active and inactive calls. Cut-off read from the data, not from the text of the source: active = GI50 up to about 1.1 µM and inactive = higher.

Legend:
Assay in all cases: growth of human tumour cells (NCI), 48 h
OVCAR-3 = system: OVCAR-3
OVCAR-5 = system: OVCAR-5
CCRF-CEM = system: CCRF-CEM
SN12C = system: SN12C
SF-539 = system: SF-539
Hs-578T = system: Hs-578T
NCI-H460 = system: NCI-H460
LOX IMVI = system: LOX IMVI
OVCAR-4 = system: OVCAR-4
MOLT-4 = system: MOLT-4
SF-295 = system: SF-295
SK-MEL-28 = system: SK-MEL-28
M14 = system: M14
MDA-N = system: MDA-N
SK-OV-3 = system: SK-OV-3
HT-29 = system: HT-29
UACC-62 = system: UACC-62
IGROV-1 = system: IGROV-1
KM12 = system: KM12
UO-31 = system: UO-31
HCC 2998 = system: HCC 2998
PC-3 = system: PC-3
NCI-H23 = system: NCI-H23
CAKI-1 = system: CAKI-1
SNB-19 = system: SNB-19
786-0 = system: 786-0
MCF7 = system: MCF7
Malme-3M = system: Malme-3M
SR = system: SR
T47D = system: T47D
K562 = system: K562
NCI-H226 = system: NCI-H226
HOP-62 = system: HOP-62
OVCAR-8 = system: OVCAR-8
SF-268 = system: SF-268
HCT-15 = system: HCT-15
BT-549 = system: BT-549
HCT-116 = system: HCT-116
SK-MEL-2 = system: SK-MEL-2
SW-620 = system: SW-620
DU-145 = system: DU-145
A498 = system: A498
HL-60 = system: HL-60
COLO 205 = system: COLO 205
MDA-MB-435 = system: MDA-MB-435
MDA-MB-231 = system: MDA-MB-231
EKVX = system: EKVX
NCI/ADR-RES = system: NCI/ADR-RES
RXF 393 = system: RXF 393
RPMI-8226 = system: RPMI-8226
SNB-75 = system: SNB-75
U-251 = system: U-251
ACHN = system: ACHN
TK-10 = system: TK-10
SK-MEL-5 = system: SK-MEL-5
UACC-257 = system: UACC-257
NCI-H522 = system: NCI-H522
A549 = system: A549

SMILES: O=c1[nH]nc(Cc2ccccc2)n1CCCl
- GI50 (OVCAR-3): > 100 µM (inactive)
- GI50 (OVCAR-5): > 100 µM (inactive)
- GI50 (CCRF-CEM): > 100 µM (inactive)
- GI50 (SN12C): > 100 µM (inactive)
- GI50 (SF-539): > 100 µM (inactive)
- GI50 (Hs-578T): > 100 µM (inactive)
- GI50 (NCI-H460): > 100 µM (inactive)
- GI50 (LOX IMVI): > 100 µM (inactive)
- GI50 (OVCAR-4): > 100 µM (inactive)
- GI50 (MOLT-4): > 100 µM (inactive)
- GI50 (SF-295): > 100 µM (inactive)
- GI50 (SK-MEL-28): > 100 µM (inactive)
- GI50 (M14): > 100 µM (inactive)
- GI50 (MDA-N): > 100 µM (inactive)
- GI50 (SK-OV-3): > 100 µM (inactive)
- GI50 (HT-29): > 100 µM (inactive)
- GI50 (UACC-62): > 100 µM (inactive)
- GI50 (IGROV-1): > 100 µM (inactive)
- GI50 (KM12): > 100 µM (inactive)
- GI50 (UO-31): > 100 µM (inactive)
- GI50 (HCC 2998): > 100 µM (inactive)
- GI50 (PC-3): > 100 µM (inactive)
- GI50 (NCI-H23): > 100 µM (inactive)
- GI50 (CAKI-1): > 100 µM (inactive)
- GI50 (SNB-19): > 100 µM (inactive)
- GI50 (786-0): > 100 µM (inactive)
- GI50 (MCF7): > 100 µM (inactive)
- GI50 (Malme-3M): > 100 µM (inactive)
- GI50 (SR): > 100 µM (inactive)
- GI50 (T47D): > 100 µM (inactive)
- GI50 (K562): > 100 µM (inactive)
- GI50 (NCI-H226): > 100 µM (inactive)
- GI50 (HOP-62): > 100 µM (inactive)
- GI50 (OVCAR-8): > 100 µM (inactive)
- GI50 (SF-268): > 100 µM (inactive)
- GI50 (HCT-15): > 100 µM
- GI50 (BT-549): > 100 µM (inactive)
- GI50 (HCT-116): > 100 µM (inactive)
- GI50 (SK-MEL-2): > 100 µM (inactive)
- GI50 (SW-620): > 100 µM (inactive)
- GI50 (DU-145): > 100 µM (inactive)
- GI50 (A498): > 100 µM (inactive)
- GI50 (HL-60): > 100 µM (inactive)
- GI50 (COLO 205): > 100 µM (inactive)
- GI50 (MDA-MB-435): > 100 µM (inactive)
- GI50 (MDA-MB-231): > 100 µM (inactive)
- GI50 (EKVX): > 100 µM (inactive)
- GI50 (NCI/ADR-RES): > 100 µM (inactive)
- GI50 (RXF 393): 90.8 µM (inactive)
- GI50 (RPMI-8226): > 100 µM (inactive)
- GI50 (SNB-75): > 100 µM (inactive)
- GI50 (U-251): > 100 µM (inactive)

SMILES: O=C(O)/C=c1/c2ccccc2n2nc3ccccc3c12
- GI50 (OVCAR-3): 33.5 µM (inactive)
- GI50 (OVCAR-5): 57.9 µM (inactive)
- GI50 (CCRF-CEM): 33.2 µM (inactive)
- GI50 (ACHN): 23.8 µM (inactive)
- GI50 (SN12C): 26.7 µM (inactive)
- GI50 (SF-539): 19.8 µM (inactive)
- GI50 (Hs-578T): 23.6 µM (inactive)
- GI50 (NCI-H460): 30.1 µM (inactive)
- GI50 (LOX IMVI): 21.9 µM (inactive)
- GI50 (OVCAR-4): 22.8 µM (inactive)
- GI50 (TK-10): 30.3 µM (inactive)
- GI50 (SK-MEL-5): 14.2 µM (inactive)
- GI50 (UACC-257): 20.9 µM (inactive)
- GI50 (MOLT-4): 23 µM (inactive)
- GI50 (SF-295): 30.8 µM (inactive)
- GI50 (SK-MEL-28): 26 µM (inactive)
- GI50 (M14): 31.2 µM (inactive)
- GI50 (MDA-N): 26 µM (inactive)
- GI50 (SK-OV-3): 22.8 µM (inactive)
- GI50 (HT-29): 39.3 µM (inactive)
- GI50 (UACC-62): 17.5 µM (inactive)
- GI50 (IGROV-1): 31.4 µM (inactive)
- GI50 (KM12): 20.4 µM (inactive)
- GI50 (UO-31): 37.6 µM (inactive)
- GI50 (HCC 2998): 24.1 µM (inactive)
- GI50 (PC-3): > 100 µM (inactive)
- GI50 (NCI-H23): 27.7 µM (inactive)
- GI50 (CAKI-1): 37.3 µM (inactive)
- GI50 (SNB-19): 31.8 µM (inactive)
- GI50 (786-0): 38.6 µM (inactive)
- GI50 (MCF7): 35.2 µM (inactive)
- GI50 (Malme-3M): 25.2 µM (inactive)
- GI50 (SR): 16.6 µM (inactive)
- GI50 (T47D): 55.5 µM (inactive)
- GI50 (K562): 36.6 µM (inactive)
- GI50 (HOP-62): 31.6 µM (inactive)
- GI50 (OVCAR-8): 21.5 µM (inactive)
- GI50 (SF-268): 38.4 µM (inactive)
- GI50 (HCT-15): 26.8 µM
- GI50 (BT-549): 37.4 µM (inactive)
- GI50 (HCT-116): 24.8 µM (inactive)
- GI50 (SK-MEL-2): 39.7 µM (inactive)
- GI50 (SW-620): 35.6 µM (inactive)
- GI50 (NCI-H522): 20.7 µM (inactive)
- GI50 (DU-145): 41.6 µM (inactive)
- GI50 (A498): 22 µM (inactive)
- GI50 (HL-60): 34.1 µM (inactive)
- GI50 (COLO 205): 17.2 µM (inactive)
- GI50 (MDA-MB-435): 31.6 µM (inactive)
- GI50 (A549): 38.2 µM (inactive)
- GI50 (MDA-MB-231): 39.1 µM (inactive)
- GI50 (EKVX): 37.1 µM (inactive)
- GI50 (NCI/ADR-RES): 29.5 µM (inactive)
- GI50 (RXF 393): 49.1 µM (inactive)
- GI50 (RPMI-8226): 25.8 µM (inactive)
- GI50 (U-251): 33.6 µM (inactive)
